Read-outs that look alike come from different tables or passages of the source.
Legend:
PIK3Cβ_h = PIK3Cβ_h (Homo sapiens (Human), UniProt P42338); assay: KINOMEscan enzyme binding assay, PIK3Cβ; conditions: DiscoveRx
Procedure: (§1) Enzyme Binding Assays (KINOMEscan®) Kinase enzyme binding affinities of compounds disclosed herein were determined using the KINOMEscan technology performed by DiscoveRx Corporation, San Diego, Calif., USA (www.kinomescan.com). Table A reports the obtained Kd values (nM), with the Kd being the inhibitor binding constant: […]

MTOR_h = MTOR_h (Homo sapiens (Human), UniProt P42345); assay: KINOMEscan enzyme binding assay, MTOR; conditions: DiscoveRx
Procedure: (§2) Enzyme Binding Assays (KINOMEscan®) Kinase enzyme binding affinities of compounds disclosed herein were determined using the KINOMEscan technology performed by DiscoveRx Corporation, San Diego, Calif., USA (www.kinomescan.com).

PIK3Cα_h = PIK3Cα_h (Homo sapiens (Human), UniProt P42336); assay: KINOMEscan enzyme binding assay, PIK3Cα; conditions: DiscoveRx
Procedure: as §2

[1] = test system: Akt phosphorylated at Thr308 in PC-3 cells; assay: Cellular assay: phosphorylation of Akt (Thr308) in PC-3 cells, MSD ELISA; type: cell-based; conditions: 60 min incubation with compound, read-out: IC50 pAkt_Thr308
Procedure: (§3) Cellular activity of PI3Kβ inhibitors was determined by quantifying the phosphorylation of Akt in PC-3 cells. Akt phosphorylated at Ser473 and Thr308 were measured using an enzyme-linked immunosorbent assay (ELISA; Meso Scale Discovery (MSD), Gaithersburg, Md.) and specific primary antibodies from MSD.
(§4) On day 1, PC3 cells (ATCC # […]) were seeded into PerkinElmer MW96 plates at 25.000 cells per well, in 75 μl complete culture medium (DMEM (Dulbecco's Modified Eagle's Medium) high glucose, AQmedia™, D0819, Sigma-Aldrich) containing 10% heat inactivated FCS (Fetal Bovine Serum) and incubated at 37° C., 5% CO2 during 24 hours. On day 2, compound or DMSO (dimethyl sulfoxide) (0.3%) was added and cells were further incubated for 60 min at 37° C., 5% CO2 in a total volume of 100 μl of medium.
(§5) The phosphoprotein assay was executed according to vendor instructions in the Phospho-Akt (Ser473) Assay Whole Cell Lysate Kit (MSD # K15100D-3) and the Phospho-Akt (Thr308) Assay Whole Cell Lysate Kit (MSD # K151DYD-3) using the lysis, blocking and wash buffer provided.
(§6) Briefly, at the end of the cell treatment period, media were removed by aspiration and adherent cells were lysed in 50 μl ice-cold lysis buffer. MSD plates are supplied pre-coated with capture antibodies for Phospho-Akt (Ser473 and Thr308). After blocking, lysates from tissue culture plates were added and plates were washed. Then, a solution containing the detection antibody (anti-total Akt conjugated with an electrochemiluminescent compound-MSD Sulfo-tag label) was added. The signals were detected using an MSD SECTOR Imager 6000 and are proportional to the phospho-Akt titres.
(§7) Data were processed. The percentage of inhibition was plotted against the log concentration of test compounds, and the sigmoidal log concentration-effect curve of best fit was calculated by nonlinear regression analysis. From these concentration-response curves, the IC50 values were calculated. Five concentrations were used for curve fitting.

PIK3Cδ_h = PIK3Cδ_h (Homo sapiens (Human), UniProt O00329); assay: KINOMEscan enzyme binding assay, PIK3Cδ; conditions: DiscoveRx
Procedure: as §1

PIK3Cγ_h = PIK3Cγ_h (Homo sapiens (Human), UniProt P48736); assay: KINOMEscan enzyme binding assay, PIK3Cγ; conditions: DiscoveRx
Procedure: as §2

[2] = test system: Akt phosphorylated at Ser473 in PC-3 cells; assay: Cellular assay: phosphorylation of Akt (Ser473) in PC-3 cells, MSD ELISA; type: cell-based; conditions: 60 min incubation with compound, read-out: IC50 pAkt_S473
Procedure: as §3, §4, §5, §6, §7

Chain of PIK3Cβ_h (P42338 whole entry): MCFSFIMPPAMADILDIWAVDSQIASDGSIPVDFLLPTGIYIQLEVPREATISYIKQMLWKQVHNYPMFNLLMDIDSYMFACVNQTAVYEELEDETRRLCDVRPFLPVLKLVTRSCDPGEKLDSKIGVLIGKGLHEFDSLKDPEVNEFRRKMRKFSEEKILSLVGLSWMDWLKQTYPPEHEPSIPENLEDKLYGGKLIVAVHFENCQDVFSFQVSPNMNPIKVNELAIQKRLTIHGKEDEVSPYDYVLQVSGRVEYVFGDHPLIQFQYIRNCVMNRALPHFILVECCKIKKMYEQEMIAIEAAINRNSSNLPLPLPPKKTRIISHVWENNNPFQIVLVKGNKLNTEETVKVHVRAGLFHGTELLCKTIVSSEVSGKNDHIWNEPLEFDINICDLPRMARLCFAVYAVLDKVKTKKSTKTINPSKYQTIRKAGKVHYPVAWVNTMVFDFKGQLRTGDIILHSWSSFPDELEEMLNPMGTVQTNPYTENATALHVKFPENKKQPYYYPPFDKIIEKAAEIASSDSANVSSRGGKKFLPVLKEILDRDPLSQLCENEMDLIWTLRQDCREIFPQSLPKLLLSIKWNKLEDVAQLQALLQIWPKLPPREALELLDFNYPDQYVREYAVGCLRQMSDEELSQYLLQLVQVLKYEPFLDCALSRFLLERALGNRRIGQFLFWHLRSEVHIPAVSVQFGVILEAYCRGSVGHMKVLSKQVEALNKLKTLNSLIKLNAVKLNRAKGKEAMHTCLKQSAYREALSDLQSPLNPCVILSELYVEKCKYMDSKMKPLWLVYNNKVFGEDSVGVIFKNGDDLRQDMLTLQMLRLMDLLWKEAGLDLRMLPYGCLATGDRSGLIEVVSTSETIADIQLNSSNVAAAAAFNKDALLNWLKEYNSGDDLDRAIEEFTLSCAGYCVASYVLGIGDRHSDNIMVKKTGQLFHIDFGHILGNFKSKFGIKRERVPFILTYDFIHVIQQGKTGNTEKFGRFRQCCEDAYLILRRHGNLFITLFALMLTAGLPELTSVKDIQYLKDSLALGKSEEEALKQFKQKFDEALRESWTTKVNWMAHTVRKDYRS
Chain of PIK3Cδ_h (O00329 whole entry): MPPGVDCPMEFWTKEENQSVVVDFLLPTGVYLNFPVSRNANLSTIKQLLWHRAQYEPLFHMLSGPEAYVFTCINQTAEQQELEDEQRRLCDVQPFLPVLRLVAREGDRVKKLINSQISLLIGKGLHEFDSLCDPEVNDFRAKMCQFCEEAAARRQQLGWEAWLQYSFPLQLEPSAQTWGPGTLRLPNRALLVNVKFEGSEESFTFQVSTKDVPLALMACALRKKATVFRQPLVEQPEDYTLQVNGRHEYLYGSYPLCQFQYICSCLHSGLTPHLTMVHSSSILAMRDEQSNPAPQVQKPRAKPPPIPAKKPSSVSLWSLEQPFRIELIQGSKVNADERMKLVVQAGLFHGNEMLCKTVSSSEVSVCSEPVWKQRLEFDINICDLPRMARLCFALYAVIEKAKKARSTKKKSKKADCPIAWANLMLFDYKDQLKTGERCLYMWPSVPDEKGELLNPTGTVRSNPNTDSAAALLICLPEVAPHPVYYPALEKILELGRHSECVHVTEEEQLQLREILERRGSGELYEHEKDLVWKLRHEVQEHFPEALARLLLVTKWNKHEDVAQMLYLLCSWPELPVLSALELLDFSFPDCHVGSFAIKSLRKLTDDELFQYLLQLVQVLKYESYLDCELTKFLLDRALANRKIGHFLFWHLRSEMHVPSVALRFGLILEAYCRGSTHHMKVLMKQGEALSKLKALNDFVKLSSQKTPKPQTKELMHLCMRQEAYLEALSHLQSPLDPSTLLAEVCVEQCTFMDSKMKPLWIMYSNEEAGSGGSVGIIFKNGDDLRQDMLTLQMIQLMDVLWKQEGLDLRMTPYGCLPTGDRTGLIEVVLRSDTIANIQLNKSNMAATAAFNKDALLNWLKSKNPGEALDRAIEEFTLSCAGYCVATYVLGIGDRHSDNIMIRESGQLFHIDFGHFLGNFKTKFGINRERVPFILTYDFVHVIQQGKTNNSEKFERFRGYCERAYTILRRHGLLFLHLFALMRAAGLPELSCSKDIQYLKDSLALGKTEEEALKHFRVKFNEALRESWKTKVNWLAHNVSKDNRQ
Chain of PIK3Cα_h (P42336 whole entry): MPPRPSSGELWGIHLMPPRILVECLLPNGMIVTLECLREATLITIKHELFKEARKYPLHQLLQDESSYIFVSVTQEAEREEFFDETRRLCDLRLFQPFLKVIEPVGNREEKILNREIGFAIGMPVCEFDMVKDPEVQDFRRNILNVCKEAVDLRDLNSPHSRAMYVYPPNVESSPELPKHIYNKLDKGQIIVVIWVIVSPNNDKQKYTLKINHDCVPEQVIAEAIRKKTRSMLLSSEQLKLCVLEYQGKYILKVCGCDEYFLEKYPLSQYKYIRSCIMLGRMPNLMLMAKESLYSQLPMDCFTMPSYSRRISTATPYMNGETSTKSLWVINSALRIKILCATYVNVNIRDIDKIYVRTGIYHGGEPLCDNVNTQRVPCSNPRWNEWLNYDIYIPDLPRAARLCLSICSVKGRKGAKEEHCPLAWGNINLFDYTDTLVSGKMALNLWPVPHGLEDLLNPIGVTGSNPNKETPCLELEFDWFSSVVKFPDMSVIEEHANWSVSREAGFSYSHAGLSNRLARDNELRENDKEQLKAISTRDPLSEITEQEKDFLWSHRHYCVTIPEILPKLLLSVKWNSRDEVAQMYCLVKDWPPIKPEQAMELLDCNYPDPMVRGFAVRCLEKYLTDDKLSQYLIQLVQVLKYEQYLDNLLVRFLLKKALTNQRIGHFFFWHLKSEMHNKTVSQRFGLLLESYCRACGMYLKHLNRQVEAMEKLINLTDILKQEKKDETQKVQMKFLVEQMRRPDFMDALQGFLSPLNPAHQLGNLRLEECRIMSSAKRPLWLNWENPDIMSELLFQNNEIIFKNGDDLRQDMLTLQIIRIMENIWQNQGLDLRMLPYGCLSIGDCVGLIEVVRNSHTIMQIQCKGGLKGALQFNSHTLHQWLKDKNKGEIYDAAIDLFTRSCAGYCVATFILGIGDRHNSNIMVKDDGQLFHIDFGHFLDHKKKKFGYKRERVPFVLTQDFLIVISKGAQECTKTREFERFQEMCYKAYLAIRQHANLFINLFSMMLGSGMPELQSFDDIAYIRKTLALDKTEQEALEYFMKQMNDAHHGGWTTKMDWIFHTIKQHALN
Chain of PIK3Cγ_h (P48736 whole entry): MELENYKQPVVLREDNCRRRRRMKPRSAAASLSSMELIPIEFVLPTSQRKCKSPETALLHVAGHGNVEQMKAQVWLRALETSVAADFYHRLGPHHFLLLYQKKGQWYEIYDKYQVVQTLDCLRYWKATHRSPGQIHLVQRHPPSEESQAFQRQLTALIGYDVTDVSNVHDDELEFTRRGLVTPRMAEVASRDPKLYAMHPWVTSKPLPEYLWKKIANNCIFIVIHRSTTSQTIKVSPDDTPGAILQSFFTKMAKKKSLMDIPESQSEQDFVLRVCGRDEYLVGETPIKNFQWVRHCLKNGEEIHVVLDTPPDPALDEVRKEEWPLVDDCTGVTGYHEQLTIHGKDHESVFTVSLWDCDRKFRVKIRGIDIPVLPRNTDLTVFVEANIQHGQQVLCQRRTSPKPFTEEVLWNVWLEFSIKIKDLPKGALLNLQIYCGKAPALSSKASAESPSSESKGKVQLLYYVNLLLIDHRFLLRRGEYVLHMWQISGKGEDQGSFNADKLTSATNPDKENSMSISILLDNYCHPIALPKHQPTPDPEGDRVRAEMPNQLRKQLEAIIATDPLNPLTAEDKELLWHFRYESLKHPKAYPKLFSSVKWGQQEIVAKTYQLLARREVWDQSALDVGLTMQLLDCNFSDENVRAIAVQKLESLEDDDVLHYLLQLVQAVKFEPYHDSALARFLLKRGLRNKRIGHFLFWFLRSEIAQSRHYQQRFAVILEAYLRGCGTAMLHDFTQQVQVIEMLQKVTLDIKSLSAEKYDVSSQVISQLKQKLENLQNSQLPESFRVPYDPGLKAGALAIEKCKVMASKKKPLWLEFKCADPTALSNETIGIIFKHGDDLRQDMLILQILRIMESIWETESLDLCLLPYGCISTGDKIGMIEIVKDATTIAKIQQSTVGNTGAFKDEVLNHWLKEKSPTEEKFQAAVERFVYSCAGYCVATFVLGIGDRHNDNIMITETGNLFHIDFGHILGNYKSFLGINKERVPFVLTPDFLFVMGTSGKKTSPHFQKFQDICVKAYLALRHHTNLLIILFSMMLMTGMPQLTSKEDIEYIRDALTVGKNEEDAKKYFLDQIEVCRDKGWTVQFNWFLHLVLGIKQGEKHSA

SMILES	Kd (PIK3Cβ_h) [nM]	Kd (MTOR_h) [nM]	Kd (PIK3Cα_h) [nM]	IC50 ([1]; Homo sapiens, PC-3, 1 h) [nM]	Kd (PIK3Cδ_h) [nM]	Kd (PIK3Cγ_h) [nM]	IC50 ([2]; Homo sapiens, PC-3, 1 h) [nM]	IC50 [1] [nM]	IC50 [2] [nM]
Cc1c(Cc2c(CN(C)CCS(C)(=O)=O)nc3c(N)cc(N4CCOCC4)nn23)cccc1C(F)(F)F [Compound 1]	2.4	23400	16600	74	513	> 30200	~34		
Cc1c(Cc2c(CNCCS(C)(=O)=O)nc3c(N)cc(N4CCOCC4)nn23)cccc1C(F)(F)F [Compound 2]	1.4	23400	8130	186	178	> 30200	138		
Cc1nc2c(-c3cnc[nH]3)cc(N3CCOCC3)nn2c1Cc1cccc(C(F)(F)F)c1C [Compound 5]	6	2400	617	~48	316	10200	~59		
Cc1nc2c(-c3ncc[nH]3)cc(N3CCOCC3)nn2c1Cc1cccc(C(F)(F)F)c1C [Compound 7]	15	> 10000	> 3310	135	525	> 30200	269		
Cc1nc2c(-c3ccn[nH]3)cc(N3CCOCC3)nn2c1Cc1cccc(C(F)(F)F)c1C [Compound 8]	31	525	30200	204	891	14500	263		
Cc1nc2c(C(=O)O)cc(N3CCOCC3)nn2c1Cc1cccc(C(F)(F)F)c1C [Compound 9]	1.4	12900	1350	316	174	5250	513		
Cc1nc2c(C(N)=O)cc(N3CCOCC3)nn2c1Cc1cccc(C(F)(F)F)c1C [Compound 10]	20	> 30200	> 30200	> 513	12600	> 30200	501		
Cc1nc2c(C(N)=O)cc(N3CCOCC3)nn2c1Cc1cccc(Cl)c1C [Compound 11]	21	22400	2690	355	955	6920	~158		
Cc1cccc(Cc2c(C)nc3c(C(=O)O)cc(N4CCOCC4)nn23)c1C [Compound 12]	< 1.5	9330	1070	~151	69	6170	~316		
Cc1nc2c(C(=O)O)cc(N3CCOCC3)nn2c1Cc1cccc(Cl)c1C [Compound 13]	0.5	9550	525	~263	56	3550	> 513		
Cc1c(Cc2c(CO)nc3c(N)cc(N4CCOCC4)nn23)cccc1C(F)(F)F [Compound 14]	1.3	> 5690	> 9180		207	> 8880		~38	~63
Cc1c(Cc2c(CO)nc3c(N)cc(N4CCOCC4)nn23)cccc1C(F)(F)F [Compound 14a]	1.2	6760	> 30200		225	> 10000		38	~46
Cc1c(Cc2c(CO)nc3c(N)cc(N4CCOCC4)nn23)cccc1C(F)(F)F [Compound 14b]	1.5	> 30200	> 10000		253	> 8130		38	60
Cc1c(Cc2c(CO)nc3c(N)cc(N4CCOCC4)nn23)cccc1C(F)(F)F [Compound 14d]								29	67
Cc1c(Cc2c(CO)nc3c(N)cc(N4CCOCC4)nn23)cccc1C(F)(F)F [Compound 14e]								41	52
Cc1c(Cc2c(CF)nc3c(C(N)=O)cc(N4CCOCC4)nn23)cccc1C(F)(F)F [Compound 16]	10	> 30200	> 10000	155	> 3310	> 3310	123		
Cc1c(Cc2c(CO)nc3c(-c4cnc[nH]4)cc(N4CCOCC4)nn23)cccc1C(F)(F)F [Compound 19]				26			28		
Cc1nc2c(N)cc(N3CCOCC3)nn2c1Nc1cccc(C(F)(F)F)c1CN1CCC(O)C1 (stereo not drawn) [Compound 74]	2.2		4900	26	31		30		
Cc1nc2c(N)cc(N3CCOCC3)nn2c1Nc1cccc(C(F)(F)F)c1CN1CCC(O)C1 (stereo not drawn) [Compound 77]	1.4		3160		47			25	58
Nc1cc(N2CCOCC2)nn2c(Cc3cccc(C(F)(F)F)c3C3CCN(CCO)CC3)c(CO)nc12 [Compound 105]	1.2	> 30200	26300	85	537	> 30200			

Second part, the compound after the results:

Kd (PIK3Cβ_h) [nM]	Kd (MTOR_h) [nM]	Kd (PIK3Cα_h) [nM]	IC50 ([1]; Homo sapiens, PC-3, 1 h) [nM]	Kd (PIK3Cδ_h) [nM]	Kd (PIK3Cγ_h) [nM]	IC50 ([2]; Homo sapiens, PC-3, 1 h) [nM]	IC50 [1] [nM]	IC50 [2] [nM]	SMILES
1.1	7940	9550	~71	105	15500	120			Cc1c(Cc2c(CNCCO)nc3c(N)cc(N4CCOCC4)nn23)cccc1C(F)(F)F [Compound 3]
3.3	> 3310	933	~120	74	1150	~135			Cc1c(Cc2c(CNCCO)nc3c(-c4ncc[nH]4)cc(N4CCOCC4)nn23)cccc1C(F)(F)F [Compound 4]
5	> 30200	> 30200	~85	955	> 30200	123			Cc1nc2c(N)cc(N3CCOCC3)nn2c1Cc1cccc(C(F)(F)F)c1C [Compound 6]
1.2	5250	> 10000	~49	194	> 30200	50			Cc1c(Cc2c(CO)nc3c(N)cc(N4CCOCC4)nn23)cccc1C(F)(F)F [Compound 14c]
7	> 30200	1100	~43	479	2000	~91			Cc1c(Cc2c(CO)nc3c(C(N)=O)cc(N4CCOCC4)nn23)cccc1C(F)(F)F [Compound 15]
3.3	14100	17000	~50	427	15800	81			Cc1c(Cc2c(CF)nc3c(N)cc(N4CCOCC4)nn23)cccc1C(F)(F)F [Compound 17]
2.1	11500		~81	166		145			Cc1nc2c(N)cc(N3CCOCC3)nn2c1Nc1cccc(C(F)(F)F)c1CO [Compound 51]
1.3		3240		35			26	51	Cc1nc2c(N)cc(N3CCOCC3)nn2c1Nc1cccc(C(F)(F)F)c1CN1CCC(O)C1 (stereo not drawn) [Compound 78]
12	8710	11200	120	69	8320				Cc1nc2c(N)cc(N3CCOCC3)nn2c1Nc1ccccc1N1CCOCC1 [Compound 88]
			> 513			> 513			CCc1c(F)cccc1Cc1c(CNCCO)nc2c(N)cc(N3CCOCC3)nn12 [Compound 101]
